Results from patent publication US20110201628A1, “HETEROCYCLIC JAK KINASE INHIBITORS” (priority 2008, published 2011).

These compounds were tested against T1, C-terminal His6-tagged, recombinant, human JAK2, amino acids 808-end (Homo sapiens, UniProt O60674) (assay: JAK2 kinase Alphascreen assay (Method 1)). Conditions: Alphascreen, 150 pM JAK2 enzyme, 5 mM ATP, 80 nM Tyk2 peptide, 60 minutes room temperature; read-out: IC50 Assay (Method 1).
T1 construct: His6 (C); purchased Upstate Biotechnology MA; host or cells: baculovirus in Sf21 cells
Assay type: biochemical
Experimental: To measure JAK2 kinase activity, a commercially available purified enzyme may be used. […] After incubation of the kinase with a biotinylated substrate and adenosine triphosphate (ATP) for 60 minutes at room temperature, the kinase reaction may be stopped by the addition of 30 mM ethylenediaminetetraacetic acid (EDTA). The reaction may be performed in 384 well microtitre plates and the reaction products may be detected with the addition of streptavidin coated Donor Beads and phosphotyrosine-specific antibodies coated Acceptor Beads using the EnVision Multilabel Plate Reader after an overnight incubation at room temperature. “Tween 20” is a registered trademark of ICI Americas, Inc.

T1 sequence (O60674 808-1132 limits assumed): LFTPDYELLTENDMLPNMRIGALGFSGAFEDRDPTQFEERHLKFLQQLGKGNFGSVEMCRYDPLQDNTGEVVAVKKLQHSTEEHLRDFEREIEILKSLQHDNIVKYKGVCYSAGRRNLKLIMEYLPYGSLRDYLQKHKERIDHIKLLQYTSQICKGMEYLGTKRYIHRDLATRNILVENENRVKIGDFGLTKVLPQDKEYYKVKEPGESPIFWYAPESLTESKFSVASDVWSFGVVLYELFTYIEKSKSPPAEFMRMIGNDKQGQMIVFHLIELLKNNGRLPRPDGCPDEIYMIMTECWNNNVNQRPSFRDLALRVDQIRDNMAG

SMILES	IC50 [nM]
CC(Nc1nc(Nc2cn(C)cn2)c2cccnc2n1)c1ncc(F)cc1F (single isomer, unassigned) [Example 12(a), N^2-[1-(3,5-Difluoropyridin-2-yl)ethyl]-N^4-(1-methyl-1H-imidazol-4-yl)pyrido[2,3-d]pyrimidine-2,4-diamine]	< 3
CC(Nc1nc2c(c(Nc3cn(C)cn3)n1)CNCC2)c1ncc(F)cn1 (single isomer, unassigned) [17(b), N^2-[1-(5-Fluoropyrimidin-2-yl)ethyl]-N^4-(1-methyl-1H-imidazol-4-yl)-5,6,7,8-tetrahydropyrido[4,3-d]pyrimidine-2,4-diamine]	2000
CC(Nc1nc(Nc2cn(C)cn2)c2ccc(N3CCOCC3)nc2n1)c1ncc(F)cc1F (single isomer, unassigned) [Example 40(a), N^2-[1-(3,5-Difluoropyridin-2-yl)ethyl]-N^4-(1-methyl-1H-imidazol-4-yl)-7-morpholin-4-ylpyrido[2,3-d]pyrimidine-2,4-diamine]	490
Cc1nc2c(Nc3cn(C)cn3)nc(NC(C)c3ncc(F)cn3)nc2s1 (single isomer, unassigned) [Example 7(a), N^5-[1-(5-Fluoropyrimidin-2-yl)ethyl]-2-methyl-N^7-(1-methyl-1H-imidazol-4-yl)[1,3]thiazolo[5,4-d]pyrimidine-5,7-diamine]	570
CC(Nc1nc(Nc2cn(C)cn2)c2ccncc2n1)c1ncc(F)cc1F (single isomer, unassigned) [Example 43(a), N^2-[1-(3,5-Difluoropyridin-2-yl)ethyl]-N^4-(1-methyl-1H-imidazol-4-yl)pyrido[3,4-d]pyrimidine-2,4-diamine]	< 3
C[C@H](Nc1nc(Nc2cn(C)cn2)c2[nH]ccc2n1)c1ncc(F)cn1 [Example 6, N^2-[(1S)-1-(5-Fluoropyrimidin-2-yl)ethyl]-N^4-(1-methyl-1H-imidazol-4-yl)-5H-pyrrolo[3,2-d]pyrimidine-2,4-diamine]	< 3
COc1ccc2nc(N[C@@H](C)c3ncc(F)cn3)nc(Nc3cn(C)cn3)c2c1 [Example 28, N^2-[(1S)-1-(5-Fluoropyrimidin-2-yl)ethyl]-6-methoxy-N^4-(1-methyl-1H-imidazol-4-yl)quinazoline-2,4-diamine]	670
C[C@H](Nc1nc(Nc2cn(C)cn2)c2cn[nH]c2n1)c1ncc(F)cn1 [Example 46, N^6-[(1S)-1-(5-Fluoropyrimidin-2-yl)ethyl]-N^4-(1-methyl-1H-imidazol-4-yl)-1H-pyrazolo[3,4-d]pyrimidine-4,6-diamine]	21
CC(Nc1nc2c(c(Nc3cn(C)cn3)n1)CCC2)c1ncc(F)cn1 (single isomer, unassigned) [Example 8(a), N^2-[1-(5-Fluoropyrimidin-2-yl)ethyl]-N^4-(1-methyl-1H-imidazol-4-yl)-6,7-dihydro-5H-cyclopenta[d]pyrimidine-2,4-diamine]	20000
CC(Nc1nc2c(c(Nc3cn(C)cn3)n1)CNCC2)c1ncc(F)cn1 (single isomer, unassigned) [17(a), N^2-[1-(5-Fluoropyrimidin-2-yl)ethyl]-N^4-(1-methyl-1H-imidazol-4-yl)-5,6,7,8-tetrahydropyrido[4,3-d]pyrimidine-2,4-diamine]	220
CC(Nc1nc(Nc2cn(C)cn2)c2nccnc2n1)c1ncc(F)cn1 (single isomer, unassigned) [Example 10(a), N^2-[1-(5-Fluoropyrimidin-2-yl)ethyl]-N^4-(1-methyl-1H-imidazol-4-yl)pteridine-2,4-diamine]	6400
C[C@H](Nc1nc2c(c(Nc3cn(C)cn3)n1)CCC2)c1ncc(F)cn1 [Example 8, N^2-[(1S)-1-(5-Fluoropyrimidin-2-yl)ethyl]-N^4-(1-methyl-1H-imidazol-4-yl)-6,7-dihydro-5H-cyclopenta[d]pyrimidine-2,4-diamine]	16
Cc1nc2c(Nc3cn(C)cn3)nc(NC(C)c3ncc(F)cn3)nc2s1 (single isomer, unassigned) [Example 7(b), N^5-[1-(5-Fluoropyrimidin-2-yl)ethyl]-2-methyl-N^7-(1-meth 1-1H-imidazol-4-yl)[1,3]thiazolo[5,4-d]pyrimidine-5,7-diamine]	21600
Cc1nc2c(Nc3cn(C)cn3)nc(N[C@@H](C)c3ncc(F)cn3)nc2s1 [Example 7, N^5-[(1S)-1-(5-Fluoropyrimidin-2-yl)ethyl]-2-methyl-N^7-(1-methyl-1H-imidazol-4-yl)[1,3]thiazolo[5,4-d]pyrimidine-5,7-diamine]	1900

Same assay, conditions: IC50 Assay (Method 1)

SMILES	IC50 [nM]
CC(Nc1nc(Nc2cn(C)cn2)c2cc(F)cnc2n1)c1ncc(F)cn1 (single isomer, unassigned) [Example 38(b), 6-Fluoro-N^2-[1-(5-fluoropyrimidin-2-yl)ethyl]-N^4-(1-methyl-1H-imidazol-4-yl)pyrido[2,3-d]pyrimidine-2,4-diamine]	490

Each compound was assayed against T2, N-terminal GST-tagged, recombinant, human JAK2 (amino acids 831-1132) (Homo sapiens, UniProt O60674) (assay: JAK2 mobility shift assay on Caliper LC3000 (Method 2)). Conditions: 0.3 nM JAK2 enzyme, 5 mM ATP, 1.5 μM SRCtide, 90 minutes room temperature.
T2 construct: human JAK2 (amino acids 831-1132, PLAZA database pAZB0359); GST (N); host or cells: insect cells
Assay type: biochemical
Experimental: Janus kinase 2 (JAK2) activity was also determined by measuring the kinase's ability to phosphorylate a tyrosine residue within a peptide substrate using a mobility shift assay on a Caliper LC3000 reader (Caliper, Hopkinton, Mass.), which measures fluorescence of the phosphorylated and unphosphorylated substrate and calculates a ratiometric value to determine percent turnover.
To measure JAK2 kinase activity, an in-house purified enzyme was used. […] After incubation of the kinase with a FAM labeled SRCtide substrate, adenosine triphosphate (ATP), and MgCl2 for 90 minutes at room temperature, the kinase reaction was stopped by the addition of 36 mM ethylenediaminetetraacetic acid (EDTA). The reaction was performed in 384 well microtitre plates and the reaction products were detected using the Caliper LC3000 Reader.

T2 sequence (O60674 831-1132): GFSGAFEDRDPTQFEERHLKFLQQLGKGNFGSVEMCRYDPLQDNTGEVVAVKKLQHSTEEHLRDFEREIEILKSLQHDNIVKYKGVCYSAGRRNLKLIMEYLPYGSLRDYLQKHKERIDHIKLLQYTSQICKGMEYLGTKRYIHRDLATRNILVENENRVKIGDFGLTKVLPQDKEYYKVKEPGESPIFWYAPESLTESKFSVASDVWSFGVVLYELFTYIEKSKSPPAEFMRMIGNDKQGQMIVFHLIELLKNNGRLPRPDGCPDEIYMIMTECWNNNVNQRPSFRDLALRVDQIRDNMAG

SMILES	IC50 [nM]
CC(Nc1nc(Nc2cn(C)cn2)c2ccn(CCF)c2n1)c1ncc(F)cn1 (single isomer, unassigned) [Example 22(b), 7-(2-Fluoroethyl)-N^2-[1-(5-fluoropyrimidin-2-yl)ethyl]-N^4-(1-methyl-1H-imidazol-4-yl)-7H-pyrrolo[2,3-d]pyrimidine-2,4-diamine]	7
CC(Nc1nc(Nc2cn(C)cn2)c2cc(F)cnc2n1)c1ncc(F)cc1F (single isomer, unassigned) [Example 31(b), N^2-[1-(3,5-Difluoropyridin-2-yl)ethyl]-6-fluoro-N^4-(1-methyl-1H-imidazol-4-yl)pyrido[2,3-d]pyrimidine-2,4-diamine]	15000
COc1cnc(C(C)Nc2nc(Nc3cn(C)cn3)c3cc[nH]c3n2)nc1 (racemic) [Example 27, N^2-[1-(5-Methoxypyrimidin-2-yl)ethyl]-N^4-(1-methyl-1H-imidazol-4-yl)-7H-pyrrolo[2,3-d]pyrimidine-2,4-diamine]	270
CC(Nc1nc(Nc2cn(C)cn2)c2ccn(CCF)c2n1)c1ncc(F)cn1 (single isomer, unassigned) [Example 22(a), 7-(2-Fluoroethyl)-N^2-[1-(5-fluoropyrimidin-2-yl)ethyl]-N^4-(1-methyl-1H-imidazol-4-yl)-7H-pyrrolo[2,3-d]pyrimidine-2,4-diamine]	2320
C[C@H](Nc1nc(Nc2cn(C)cn2)c2ccc(O)nc2n1)c1ncc(F)cn1 [Example 34, 2-{[(1S)-1-(5-Fluoropyrimidin-2-yl)ethyl]amino}-4-[(1-methyl-1H-imidazol-4-yl)amino]pyrido[2,3-d]pyrimidin-7-ol]	47
CC(Nc1nc(Nc2cn(C)cn2)c2cc(F)cnc2n1)c1ncc(F)cc1F (single isomer, unassigned) [Example 31(a), N^2-[1-(3,5-Difluoropyridin-2-yl)ethyl]-6-fluoro-N^4-(1-methyl-1H-imidazol-4-yl)pyrido[2,3-d]pyrimidine-2,4-diamine]	80
CC(Nc1nc(Nc2cn(C)cn2)c2ccn(C3CC3)c2n1)c1ncc(F)cn1 (single isomer, unassigned) [Example 24(b), 7-Cyclopropyl-N^2-[1-(5-fluoropyrimidin-2-yl)ethyl]-N^4-(1-methyl-1H-imidazol-4-yl)-7H-pyrrolo[2,3-d]pyrimidine-2,4-diamine]	27
